Some test systems named below: T-47D breast; 786-0 renal; HCC-2998 colon; TK-10 renal; NCI-H460 lung; SN12C renal; CCRF-CEM leukemia; EKVX NSCLC; MDA-N; OVCAR-8 ovarian; SW-620 colon.
Holding throughout (assay): NCI anticancer screen, dose series, 48 h

Structures are written as SMILES.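 Growth conditions: 96-well plates. Treatment: test compound, 48 hours, 5 concentrations. Analysis: linear interpolation between bracketing concentrations; unreached endpoints set to highest concentration. Definition used: TGI = concentration required for complete inhibition of growth.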

In the case of `O=C1OCOC2(CCCC2)C1c1ccccc1` (stereo unspecified), the TGI in the test with T-47D breast, in the test with 786-0 renal, in the test with HCC-2998 colon, with TK-10 renal, in the test with NCI-H460 lung and in the test with SN12C renal was more than 100 µM throughout. For the same molecule, the TGI with CCRF-CEM leukemia, in the test with EKVX NSCLC, in the test with MDA-N, in the test on OVCAR-8 ovarian and in the test with SW-620 colon was more than 100 µM in each case.

Turning to `CSC(SC)=C(C#N)C(=O)Nc1ccc(Cl)cc1`, the TGI was 85.3 µM with T-47D breast; more than 100 µM in the test on 786-0 renal; more than 100 µM in the test with HCC-2998 colon; 72.6 µM in the test on TK-10 renal; more than 100 µM in the test with NCI-H460 lung; more than 100 µM in the test on SN12C renal. For the same molecule, the TGI in the test on CCRF-CEM leukemia was 74.9 µM; with EKVX NSCLC, more than 100 µM; in the test on MDA-N, more than 100 µM; in the test with OVCAR-8 ovarian, more than 100 µM; in the test with SW-620 colon, more than 100 µM.

In the case of `c1cc(CSP234N5CCN2CCN3CCN4CC5)cc(CSP234N5CCN2CCN3CCN4CC5)c1`, the TGI is more than 100 µM in the test with T-47D breast; more than 100 µM in the test on 786-0 renal; 57.5 µM in the test on HCC-2998 colon; more than 100 µM with TK-10 renal; more than 100 µM in the test on NCI-H460 lung; more than 100 µM with SN12C renal. The TGI was 62.3 µM in the test on CCRF-CEM leukemia; more than 100 µM in the test on EKVX NSCLC; 79.9 µM in the test on MDA-N; 41.9 µM in the test with OVCAR-8 ovarian; more than 100 µM in the test with SW-620 colon.

Take `COc1cc2c(cc1C)NC(=O)/C2=C/c1c(Cl)[nH]c2ccccc12`: the TGI with T-47D breast is 34.1 µM; in the test on 786-0 renal, 20 µM; in the test with HCC-2998 colon, 15.4 µM; with TK-10 renal, 22.1 µM; in the test on NCI-H460 lung, 17.1 µM; in the test on SN12C renal, 16.7 µM. In addition, the TGI came to 17.2 µM in the test with CCRF-CEM leukemia; 20.9 µM with EKVX NSCLC; 3.82 µM with MDA-N; 26.4 µM in the test with OVCAR-8 ovarian; 19.6 µM in the test with SW-620 colon.

`NS(=O)(=O)c1ccc(Nc2c3ccccc3nc3c(C(=O)NC(CO)(CO)CO)cccc23)cc1`: the TGI is more than 1 µM in the test on T-47D breast; 0.0514 µM in the test with 786-0 renal; 0.39 µM in the test with HCC-2998 colon; 0.311 µM in the test on TK-10 renal; 0.248 µM in the test on NCI-H460 lung; 0.695 µM in the test with SN12C renal. In addition, the TGI in the test on CCRF-CEM leukemia is 0.891 µM; in the test with EKVX NSCLC it was more than 1 µM; in the test with MDA-N, 0.862 µM; in the test on OVCAR-8 ovarian, 0.595 µM; in the test with SW-620 colon, 0.435 µM.

On to `O=C1c2ccccc2CC12Cc1ccc3c(c1C2=O)CCCC3` (stereo unspecified), for which the TGI was 9.59 µM in the test with T-47D breast; more than 100 µM with 786-0 renal; more than 100 µM in the test on HCC-2998 colon; more than 100 µM in the test on TK-10 renal; more than 100 µM in the test with NCI-H460 lung; more than 100 µM in the test with SN12C renal. In addition, the TGI with CCRF-CEM leukemia, in the test on EKVX NSCLC, in the test on MDA-N, in the test on OVCAR-8 ovarian and in the test with SW-620 colon was more than 100 µM in each case.

For `CC(C)C1OC(=O)C(Cc2ccccc2)N(C)C(=O)C(C(C)C)OC(=O)C(Cc2ccccc2)N(C)C(=O)C(C(C)C)OC(=O)C(Cc2ccccc2)N(C)C1=O` (stereo unspecified), the TGI is 3.25 µM in the test with T-47D breast; 2.5 µM with 786-0 renal; 1.99 µM with HCC-2998 colon; 2.12 µM in the test on TK-10 renal; 2.44 µM in the test with NCI-H460 lung; 2.14 µM in the test on SN12C renal. Also, the TGI is 1.59 µM in the test on CCRF-CEM leukemia; 2.41 µM with EKVX NSCLC; 2.1 µM in the test with MDA-N; 1.97 µM in the test with OVCAR-8 ovarian; 2.54 µM in the test with SW-620 colon.

As to `O=c1[nH]nc(-c2cccc([N+](=O)[O-])c2)[nH]1`, the TGI in the test with T-47D breast, in the test with 786-0 renal, in the test with HCC-2998 colon, with TK-10 renal, in the test on NCI-H460 lung and in the test with SN12C renal was more than 100 µM throughout. The TGI in the test with CCRF-CEM leukemia, in the test with EKVX NSCLC, in the test on MDA-N, in the test with OVCAR-8 ovarian and in the test on SW-620 colon was more than 100 µM each time.

For `C=CCN(C(C)=O)c1cc(OCc2ccccc2)c2c(c1)c(C)cn2S(=O)(=O)c1ccccc1`, the TGI was more than 35 µM in the test on T-47D breast; more than 100 µM in the test on 786-0 renal; more than 100 µM in the test with HCC-2998 colon; more than 100 µM in the test with TK-10 renal; more than 100 µM in the test on NCI-H460 lung; more than 100 µM in the test with SN12C renal. The TGI is more than 27.1 µM in the test with CCRF-CEM leukemia; more than 50.3 µM in the test with EKVX NSCLC; more than 74.7 µM with MDA-N; more than 100 µM with OVCAR-8 ovarian; more than 100 µM in the test with SW-620 colon.

As for `CCCCCCCC(=O)NC(C)(C)C(=O)NCC(=O)NC(CC(C)C)C(=O)NC(C)(C)C(=O)NCC(=O)NCC(=O)NC(CC(C)C)C(=O)NC(C)(C)C(=O)NCC(=O)NC(C(=O)NC(CO)CC(C)C)C(C)CC` (stereo unspecified), the TGI was 7.23 µM with T-47D breast; 8.11 µM with 786-0 renal; 7.71 µM with HCC-2998 colon; 8.17 µM in the test with TK-10 renal; 8.11 µM in the test with NCI-H460 lung; 7.7 µM with SN12C renal. In addition, the TGI was found to be 11.7 µM in the test with CCRF-CEM leukemia; 6.91 µM in the test with EKVX NSCLC; 7.37 µM in the test with MDA-N; 7.62 µM with OVCAR-8 ovarian; 9.28 µM in the test with SW-620 colon.

For the molecule `O=C1c2cccc3cc([N+](=O)[O-])cc(c23)C(=O)N1c1ccc(OCCN2CCCC2)cc1`, the TGI in the test on T-47D breast was more than 100 µM; in the test with 786-0 renal, 33.4 µM; in the test on HCC-2998 colon, 33.5 µM; in the test with TK-10 renal, 81.3 µM; in the test on NCI-H460 lung it was 21.3 µM; with SN12C renal, more than 100 µM. Also, the TGI in the test with CCRF-CEM leukemia was 73.5 µM; in the test on EKVX NSCLC, 71.3 µM; in the test with MDA-N, 80.3 µM; with OVCAR-8 ovarian it was more than 100 µM; in the test with SW-620 colon, 95.2 µM.

Turning to `COc1cccc(C2c3cc4c(cc3OC(NNS(=O)(=O)c3ccc(C)cc3)C2C)OCO4)c1O` (stereo unspecified), the TGI is more than 100 µM in the test on T-47D breast; more than 100 µM with 786-0 renal; more than 100 µM in the test on HCC-2998 colon; 95.2 µM in the test on TK-10 renal; 82 µM in the test on NCI-H460 lung; more than 100 µM with SN12C renal. Also, the TGI in the test on CCRF-CEM leukemia is 43.6 µM; in the test on EKVX NSCLC it was more than 100 µM; in the test on MDA-N, 80.1 µM; in the test with OVCAR-8 ovarian, more than 100 µM; in the test with SW-620 colon, more than 100 µM.

Consider `NC1=Nc2ncccc2C(=O)NN1`, for which the TGI with T-47D breast, in the test with 786-0 renal, with HCC-2998 colon, in the test on TK-10 renal, in the test with NCI-H460 lung and with SN12C renal was more than 10 µM throughout. The TGI in the test with CCRF-CEM leukemia, in the test with EKVX NSCLC, in the test on MDA-N, with OVCAR-8 ovarian and in the test on SW-620 colon was more than 10 µM each time.

`CN1N=C(c2ccncc2)OC1c1ccc(C(F)(F)F)cc1` (stereo unspecified): the TGI with T-47D breast, in the test on 786-0 renal, in the test on HCC-2998 colon, in the test on TK-10 renal, with NCI-H460 lung and in the test on SN12C renal was more than 100 µM each time. Further, the TGI with CCRF-CEM leukemia, in the test with EKVX NSCLC, in the test with MDA-N, in the test on OVCAR-8 ovarian and with SW-620 colon was more than 100 µM throughout.

`Cc1[nH]c2c(C)c3c([nH]c4ccc(Cl)cc43)c(C)c2c(=O)c1C`: the TGI with T-47D breast was found to be 16.8 µM; in the test on 786-0 renal, 33 µM; in the test with HCC-2998 colon it was 16.5 µM; with TK-10 renal it was 24.1 µM; with NCI-H460 lung it was 13.5 µM; with SN12C renal it was 15.1 µM. Also, the TGI in the test on CCRF-CEM leukemia was 18.1 µM; with EKVX NSCLC it was more than 100 µM; with MDA-N it was 32.6 µM; in the test with OVCAR-8 ovarian, 17.7 µM; in the test on SW-620 colon, more than 100 µM.

On to `COc1ccc(/C=N/n2c(-c3ccccc3)n[nH]c2=O)c(OC)c1`, for which the TGI in the test on T-47D breast is more than 100 µM; in the test on 786-0 renal, more than 100 µM; with HCC-2998 colon, more than 100 µM; with TK-10 renal it was more than 71.5 µM; with NCI-H460 lung, more than 100 µM; with SN12C renal, more than 100 µM. Besides, the TGI was more than 100 µM with CCRF-CEM leukemia; more than 100 µM in the test on EKVX NSCLC; more than 100 µM in the test with MDA-N; more than 87.6 µM with OVCAR-8 ovarian; more than 100 µM in the test with SW-620 colon.
